The values that follow come from PubChem BioAssay AID274 (DTP/NCI, 2004).

In this experiment the test system is BDF1 mice, Lewis lung carcinoma iv, survival T/C. The experiment in a line: NCI In Vivo Anticancer Drug Screen. Data for tumor model Lewis Lung Carcinoma (intravenous) in B6D2F1 (BDF1) mice. The following applies: endpoint: median survival time, higher = longer survival. On the procedure:
The antitumor activity of compounds was measured in mice bearing transplantable tumors. Survival or tumor size were measured and the results are expressed as the measurement made in the treated group (T) divided by the measurement made in the vehicle treated control group (C). The tumor model used in this assay is Lewis Lung Carcinoma (intravenous) in B6D2F1 (BDF1) mice

[1] abbreviates: dose: 12.5 mg/kg/injection, schedule: Q01DX009 (ip), vehicle: saline.
Setting [2] is: dose: 25.0 mg/kg/injection, schedule: Q01DX009 (ip), vehicle: saline.
[3] abbreviates: dose: 50.0 mg/kg/injection, schedule: Q01DX009 (ip), vehicle: saline.
Setting [4] is: dose: 100.0 mg/kg/injection, schedule: Q01DX009 (ip), vehicle: saline.
Where [5] appears, read: dose: 200.0 mg/kg/injection, schedule: Q01DX009 (ip), vehicle: saline.
[6] abbreviates: dose: 12.5 mg/kg/injection, schedule: Q01DX009 (ip), vehicle: Klucel (hydroxypropylcellulose) (HPC).
Setting [7] is: dose: 25.0 mg/kg/injection, schedule: Q01DX009 (ip), vehicle: Klucel (hydroxypropylcellulose) (HPC).
The mark [8] stands for this setting: dose: 50.0 mg/kg/injection, schedule: Q01DX009 (ip), vehicle: Klucel (hydroxypropylcellulose) (HPC).

The structures appear in SMILES notation. Several values for one entry are separate records, joined by “and”; a condition that tells them apart may be missing. Equal values may be shown once. Inconclusive results and toxic doses are left out.

`CC(=O)OCC1OC(OC(C)=O)C(NC(=O)N(CCCl)N=O)C(OC(C)=O)C1OC(C)=O` (configuration not stated): the T/C by setting is: (dose: 0.75 mg/kg/injection, schedule: Q01DX009 (ip), vehicle: Klucel (hydroxypropylcellulose) (HPC)) 105 % of control; (dose: 1.5 mg/kg/injection, schedule: Q01DX009 (ip), vehicle: Klucel (hydroxypropylcellulose) (HPC)) 105 % of control; (dose: 3.0 mg/kg/injection, schedule: Q01DX009 (ip), vehicle: Klucel (hydroxypropylcellulose) (HPC)) 110 % of control; (dose: 6.0 mg/kg/injection, schedule: Q01DX009 (ip), vehicle: Klucel (hydroxypropylcellulose) (HPC)) 110 % of control.
In the case of `O=c1cc[nH]c(=O)[nH]1`, the T/C is 105 % of control (dose: 32.0 mg/kg/injection, schedule: Q01DX009 (ip), vehicle: Klucel (hydroxypropylcellulose) (HPC)); 96 % of control (dose: 64.0 mg/kg/injection, schedule: Q01DX009 (ip), vehicle: Klucel (hydroxypropylcellulose) (HPC)); 102 % of control (dose: 128.0 mg/kg/injection, schedule: Q01DX009 (ip), vehicle: Klucel (hydroxypropylcellulose) (HPC)); 86 % of control (dose: 256.0 mg/kg/injection, schedule: Q01DX009 (ip), vehicle: Klucel (hydroxypropylcellulose) (HPC)); 111 % of control (dose: 512.0 mg/kg/injection, schedule: Q01DX009 (ip), vehicle: Klucel (hydroxypropylcellulose) (HPC)).
As to `O=S(=O)(O)O`, the T/C by setting is: (dose: 1.0 mg/kg/injection, schedule: Q01DX009 (ip), vehicle: saline with Tween-80) 91 % of control; (dose: 2.0 mg/kg/injection, schedule: Q01DX009 (ip), vehicle: saline with Tween-80) 86 % of control; (dose: 4.0 mg/kg/injection, schedule: Q01DX009 (ip), vehicle: saline with Tween-80) 86 % of control; (dose: 8.0 mg/kg/injection, schedule: Q01DX009 (ip), vehicle: saline with Tween-80) 97 % of control.
For the compound `O=C(Nc1nncs1)c1cccs1`, the T/C by setting is: (dose: 12.5 mg/kg/injection, schedule: Q01DX009 (ip), vehicle: saline with Tween-80) 95 % of control; (dose: 25.0 mg/kg/injection, schedule: Q01DX009 (ip), vehicle: saline with Tween-80) 104 % of control; (dose: 50.0 mg/kg/injection, schedule: Q01DX009 (ip), vehicle: saline with Tween-80) 92 % of control; (dose: 100.0 mg/kg/injection, schedule: Q01DX009 (ip), vehicle: saline with Tween-80) 94 % of control; (dose: 200.0 mg/kg/injection, schedule: Q01DX009 (ip), vehicle: saline with Tween-80) 98 % of control; (dose: 400.0 mg/kg/injection, schedule: Q01DX009 (ip), vehicle: saline with Tween-80) 95 % of control.
`NC1=NC(=O)N2CC12` (configuration not stated): the T/C was 107 % of control under setting [1]; 110 % of control under setting [2]; 105 % of control under setting [3]; 105 % of control under setting [4]; 109 % of control under setting [5].
For the compound `Cc1c2cc[n+](CCN3CCCCC3)cc2c(C)c2c1[nH]c1ccc(O)cc12`, the T/C by setting is: (dose: 1.56 mg/kg/injection, schedule: Q01DX009 (ip), vehicle: suspension in saline) 105 % of control; (dose: 3.12 mg/kg/injection, schedule: Q01DX009 (ip), vehicle: suspension in saline) 100 % of control; (dose: 6.25 mg/kg/injection, schedule: Q01DX009 (ip), vehicle: suspension in saline) 109 % of control; (dose: 12.5 mg/kg/injection, schedule: Q01DX009 (ip), vehicle: suspension in saline) 118 % of control; (dose: 25.0 mg/kg/injection, schedule: Q01DX009 (ip), vehicle: suspension in saline) 122 % of control.
Take `CCN(CC)CCOCCO`: the T/C reads like this: under setting [2], 110 % of control; under setting [3], 99 % of control; under setting [4], 101 % of control; under setting [5], 99 % of control.
Regarding `NC(=O)c1ncn2c(=O)n(CCCl)nnc12`, the T/C (dose: 3.12 mg/kg/injection, schedule: Q01DX009 (ip), vehicle: saline) was 103 % of control; the T/C (dose: 6.25 mg/kg/injection, schedule: Q01DX009 (ip), vehicle: saline) was 120 % of control; the T/C under setting [1] is 159 % of control; the T/C under setting [2] was 298 % of control.
Turning to `CC(C)=CC(=O)OC1C2C(C)=CC(=O)C(O)C2(C)C2C3(O)OCC24C(CC(=O)OC14)C(C)C3O` (configuration not stated), the T/C reads like this: (dose: 0.25 mg/kg/injection, schedule: Q01DX009 (ip), vehicle: distilled water + Tween-80) 92 % of control; (dose: 0.5 mg/kg/injection, schedule: Q01DX009 (ip), vehicle: distilled water + Tween-80) 90 % of control; (dose: 1.0 mg/kg/injection, schedule: Q01DX009 (ip), vehicle: distilled water + Tween-80) 106 % of control; (dose: 2.0 mg/kg/injection, schedule: Q01DX009 (ip), vehicle: distilled water + Tween-80) 103 % of control.
With `N[C@@H](Cc1ccc(N(CCCl)CCCl)cc1)C(=O)O`, the T/C was 92 % of control (dose: 0.25 mg/kg/injection, schedule: Q01DX009 (ip), vehicle: saline); 99 % of control and 102 % of control and 103 % of control (dose: 0.5 mg/kg/injection, schedule: Q01DX009 (ip), vehicle: saline); 104 % of control and 105 % of control and 109 % of control (dose: 1.0 mg/kg/injection, schedule: Q01DX009 (ip), vehicle: saline); 92 % of control (dose: 1.95 mg/kg/injection, schedule: Q04DX003 (ip), vehicle: saline); 96 % of control and 110 % of control and 117 % of control (dose: 2.0 mg/kg/injection, schedule: Q01DX009 (ip), vehicle: saline); 98 % of control (dose: 3.24 mg/kg/injection, schedule: Q04DX003 (ip), vehicle: saline). In addition, the T/C runs as follows: (dose: 3.4 mg/kg/injection, schedule: Q04DX003 (ip), vehicle: saline) 100 % of control; (dose: 4.0 mg/kg/injection, schedule: Q01DX009 (ip), vehicle: saline) 112 % of control and 114 % of control; (dose: 4.9 mg/kg/injection, schedule: Q04DX003 (ip), vehicle: saline) 106 % of control; (dose: 5.4 mg/kg/injection, schedule: Q04DX003 (ip), vehicle: saline) 100 % of control; (dose: 8.0 mg/kg/injection, schedule: Q01DX009 (ip), vehicle: saline) 113 % of control; (dose: 9.0 mg/kg/injection, schedule: Q04DX003 (ip), vehicle: saline) 154 % of control. The T/C (dose: 14.3 mg/kg/injection, schedule: Q04DX003 (ip), vehicle: saline) was 122 % of control.
Take `[Cl][Pt+2][Cl].[NH-]CC1(C[NH-])CCCCC1`: the T/C reads like this: (dose: 1.5 mg/kg/injection, schedule: Q01DX009 (ip), vehicle: saline) 96 % of control; (dose: 3.0 mg/kg/injection, schedule: Q01DX009 (ip), vehicle: saline) 96 % of control; (dose: 6.0 mg/kg/injection, schedule: Q01DX009 (ip), vehicle: saline) 102 % of control.
As for `CCOC(=O)C1C2OC(=O)C(C(=O)C2CN(CCCl)CCCl)C1C1CC=C(CC2=CCC(C3C4C(=O)OC(C(CN(CCCl)CCCl)C4=O)C3C(=O)OCC)CC2)CC1` (configuration not stated), the T/C reads like this: under setting [6], 104 % of control; under setting [7], 104 % of control; under setting [8], 102 % of control; (dose: 100.0 mg/kg/injection, schedule: Q01DX009 (ip), vehicle: Klucel (hydroxypropylcellulose) (HPC)) 111 % of control.
Consider `COc1ccc(-c2c(C)c(C(=O)O)nc(-c3ccc4c(O)c(OC)c5c(c4n3)=NC(C)(C)N=5)c2N)c(O)c1OC`, for which the T/C is 113 % of control (dose: 10.0 mg/kg/injection, schedule: Q01DX009 (ip), vehicle: saline with Tween-80); 103 % of control (dose: 20.0 mg/kg/injection, schedule: Q01DX009 (ip), vehicle: saline with Tween-80); 98 % of control (dose: 40.0 mg/kg/injection, schedule: Q01DX009 (ip), vehicle: saline with Tween-80).
Turning to `O=C1C(=O)c2ccccc2C(O)=C1CC=C(Cl)Cl`, the T/C was 104 % of control under setting [6], 93 % of control under setting [7] and 91 % of control under setting [8].
On to `CC(C)NC(=O)OCc1c(COC(=O)NC(C)C)c(-c2ccc(Cl)c(Cl)c2)n2c1CCC2`, for which the T/C (dose: 1.56 mg/kg/injection, schedule: Q01DX009 (ip), vehicle: distilled water + Tween-80) is 108 % of control; the T/C (dose: 3.13 mg/kg/injection, schedule: Q01DX009 (ip), vehicle: distilled water + Tween-80) was 97 % of control; the T/C (dose: 6.25 mg/kg/injection, schedule: Q01DX009 (ip), vehicle: distilled water + Tween-80) is 101 % of control; the T/C (dose: 12.5 mg/kg/injection, schedule: Q01DX009 (ip), vehicle: distilled water + Tween-80) was 119 % of control; the T/C (dose: 50.0 mg/kg/injection, schedule: Q01DX009 (ip), vehicle: distilled water + Tween-80) was 109 % of control.
